Columns and labels:
[1] = tested on: bleomycin (BLM) induced unilateral lung fibrosis model in Sprague Dawley (SD) rats; assay: Bleomycin-induced SD rat unilateral lung fibrosis model for IPF; format: in vivo
Experimental: The purpose of this study was to evaluate the therapeutic effect of FC-4 on bleomycin (BLM) induced unilateral lung fibrosis model in Sprague Dawley (SD) rats. Male SD rats (n=50) were randomly divided into the following groups: Sham group (n=10), Model group (n=10), FC-4 administered at 10 mg/kg/day group (n=10), FC-4 administered at 30 mg/kg/day group (n=10), and FC-4 administered at 100 mg/kg/day group (n=10). All test drugs were delivered orally starting from day 8 of modeling for 14 days. Saline solution was taken for sham and model groups once a day, and FC-4 twice a day for drug treatment groups. Rats were anesthetized and the trachea was exposed. Saline was administrated via direct intra-trachea injection in the sham group, and the other groups' animals received a BLM injection at a dose of 3 mg/kg in volume of 1.0 ml/kg. All animals were processed using a non invasive lung function test with EMMS Whole Body Plethysmography system at pre-modeling, and at days 3, 7, 11, 14, 18 and 21 of modeling. One day after the last drug delivery, the left lung of all animals was perfused with 10% formalin, and processed for pathology analysis.
Animals: Species and quality level: SD rats, SPF grade. Gender and number: male, 93. Purchasing body weight range: 260-280 g. […]

[2] = molecular target: T1, recombinant human MMP-12 catalytic domain (Homo sapiens, UniProt P39900); assay: MMP-12 inhibitory assay (fluorogenic MMP substrate cleavage); format: biochemical; conditions: readout at 30 minutes
T1 construct: recombinant human MMP-12 catalytic domain; purchased Enzo BM1L-SE138
T1 sequence (P39900 106-263 limits assumed): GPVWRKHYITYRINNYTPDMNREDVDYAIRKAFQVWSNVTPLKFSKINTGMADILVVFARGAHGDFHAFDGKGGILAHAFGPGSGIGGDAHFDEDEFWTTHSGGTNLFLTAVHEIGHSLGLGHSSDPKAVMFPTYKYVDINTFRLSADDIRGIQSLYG
Experimental: The inhibitory effect of compounds on the rate of cleaving fluorogenic MMP substrate (Enzo, BML-P128) by recombinant human MMP-12 catalytic domain (Enzo, BM1L-SE138) was carried out by methods known in the art. Briefly, to each well of a 96-well black opaque plate, all the reagents were sequentially added by pipetting, and the final reaction contained 4 nM of recombinant human MMP-12 catalytic domain, 4 μM of fluorogenic MMP substrate, and various concentrations (0.15 nM to 10,000 nM) of tested compound dilutions in HEPES buffer (pH 7.5) containing 10 mM of CaCl2), 0.01% Brij® 35 (polyoxyethylene (23) lauryl ether), and 0.1 mg/ml of BSA.
The enzyme and compounds were pre-incubated on a shaker to mix in wells. After an hour of mixing, fluorogenic substrate was added to each well. Reaction without enzyme was used as a blank control in the plate. The plate was then fed into a plate reader to measure fluorescence intensity at Excitation/Emission wavelengths of 340 nm/440 nm every 10 mins for at least 1 hour at 37° C. The IC50 of each compound in MMP-12 inhibition was determined by using a readout obtained at time point 30 minutes.

Row | Structure (SMILES) | Share of the Ashcraft score that was score 3 ([1]; all drug treatment groups) [%] | Physical and behavior abnormality ([1]; all tested rats during the experiment) | IC50 [2] [µM]
1 | Cc1cc(COc2ccc(Sc3ccoc3C3NC(=O)NC3=O)cc2)ccn1 (stereo not drawn) [FC-4] | ~80 | no obviously physical and behavior abnormality change | 
2 | Cc1cccc(COc2ccc(Sc3ccoc3C3NC(=O)NC3=O)cc2)[n+]1[O-] (stereo not drawn) [FC-5] |  |  | > 1
3 | Cc1cc(CNc2ccc(Sc3ccoc3C3NC(=O)NC3=O)cc2)ccn1 (stereo not drawn) [FC-31] |  |  | 0.01 to 0.1
4 | Cc1cc(NCc2ccc(Sc3ccoc3C3NC(=O)NC3=O)cc2)ccn1 (stereo not drawn) [FC-34] |  |  | 0.1 to 1
5 | Cc1cc(CCc2ccc(Sc3ccoc3C3NC(=O)NC3=O)cc2)ccn1 (stereo not drawn) [FC-30] |  |  | 0.01 to 0.1

— patent publication US12258335B1, “Matrix metalloproteinase (MMP) inhibitors and methods of use thereof” (Foresee Pharmaceuticals USA, Inc., priority 2018, dated 2025)
